# Molecular target: T1, Tyrosine-protein kinase JAK2 (Homo sapiens, UniProt O60674)
# Assay: Inhibition of JAK2 in GM-CSF-stimulated human TF1 cells preincubated for 1 hr prior to challenge
# T1 sequence (O60674 whole entry): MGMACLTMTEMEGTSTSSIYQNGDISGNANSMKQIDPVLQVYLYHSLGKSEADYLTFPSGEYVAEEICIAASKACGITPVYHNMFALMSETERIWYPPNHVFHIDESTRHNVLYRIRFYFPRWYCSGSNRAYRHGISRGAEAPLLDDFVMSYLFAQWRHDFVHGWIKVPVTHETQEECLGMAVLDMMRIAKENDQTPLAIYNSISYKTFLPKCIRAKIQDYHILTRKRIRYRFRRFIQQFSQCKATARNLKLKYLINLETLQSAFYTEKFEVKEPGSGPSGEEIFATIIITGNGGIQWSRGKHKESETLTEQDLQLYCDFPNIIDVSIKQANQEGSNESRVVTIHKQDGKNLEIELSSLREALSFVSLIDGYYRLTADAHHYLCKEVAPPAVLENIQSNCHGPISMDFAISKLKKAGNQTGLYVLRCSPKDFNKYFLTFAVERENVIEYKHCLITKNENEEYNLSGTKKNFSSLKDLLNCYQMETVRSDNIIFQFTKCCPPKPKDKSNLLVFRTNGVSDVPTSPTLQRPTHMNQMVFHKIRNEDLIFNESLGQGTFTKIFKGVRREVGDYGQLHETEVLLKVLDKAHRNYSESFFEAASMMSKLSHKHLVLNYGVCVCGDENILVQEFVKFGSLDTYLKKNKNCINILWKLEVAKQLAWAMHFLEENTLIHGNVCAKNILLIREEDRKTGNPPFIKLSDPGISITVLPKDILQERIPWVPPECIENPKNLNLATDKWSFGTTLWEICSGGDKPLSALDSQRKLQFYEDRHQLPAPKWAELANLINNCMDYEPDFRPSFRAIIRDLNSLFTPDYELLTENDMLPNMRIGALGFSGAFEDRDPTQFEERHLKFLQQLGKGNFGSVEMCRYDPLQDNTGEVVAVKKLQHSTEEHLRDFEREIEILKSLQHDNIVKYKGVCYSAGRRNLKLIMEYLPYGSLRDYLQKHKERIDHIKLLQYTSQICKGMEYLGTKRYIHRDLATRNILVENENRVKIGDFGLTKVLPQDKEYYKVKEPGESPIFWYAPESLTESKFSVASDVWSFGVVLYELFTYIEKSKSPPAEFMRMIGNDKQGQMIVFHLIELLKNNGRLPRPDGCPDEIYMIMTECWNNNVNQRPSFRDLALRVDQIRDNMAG
row,Structure (SMILES),IC50
1,CC(C)(C)NS(=O)(=O)c1cccc(-c2ccc3cnc(Nc4ccc(C5CCN(CC(N)=O)CC5)cc4)nn23)c1,0.09 µM
2,CS(=O)(=O)c1cccc(-c2ccc3cnc(Nc4ccc(C5CCN(CC(N)=O)CC5)cc4)nn23)c1,0.058 µM
3,NC(=O)CN1CCC(c2ccc(Nc3ncc4ccc(-c5cccc6c5OC(F)(F)O6)n4n3)cc2)CC1,> 1 µM
4,CS(=O)(=O)c1ccc(-c2ccc3cnc(Nc4ccc(C5CCN(CC(N)=O)CC5)cc4)nn23)cc1,0.029 µM
5,NC(=O)CN1CCC(c2ccc(Nc3ncc4ccc(-c5cccc(CO)c5)n4n3)cc2)CC1,0.027 µM

# Molecular target: T2, Focal adhesion kinase 1 (Homo sapiens, UniProt Q05397)
# Assay: Inhibition of human recombinant FAK expressed in baculovirus expression system after 30 mins by time resolved fluorescence assay
# T2 sequence (Q05397 whole entry): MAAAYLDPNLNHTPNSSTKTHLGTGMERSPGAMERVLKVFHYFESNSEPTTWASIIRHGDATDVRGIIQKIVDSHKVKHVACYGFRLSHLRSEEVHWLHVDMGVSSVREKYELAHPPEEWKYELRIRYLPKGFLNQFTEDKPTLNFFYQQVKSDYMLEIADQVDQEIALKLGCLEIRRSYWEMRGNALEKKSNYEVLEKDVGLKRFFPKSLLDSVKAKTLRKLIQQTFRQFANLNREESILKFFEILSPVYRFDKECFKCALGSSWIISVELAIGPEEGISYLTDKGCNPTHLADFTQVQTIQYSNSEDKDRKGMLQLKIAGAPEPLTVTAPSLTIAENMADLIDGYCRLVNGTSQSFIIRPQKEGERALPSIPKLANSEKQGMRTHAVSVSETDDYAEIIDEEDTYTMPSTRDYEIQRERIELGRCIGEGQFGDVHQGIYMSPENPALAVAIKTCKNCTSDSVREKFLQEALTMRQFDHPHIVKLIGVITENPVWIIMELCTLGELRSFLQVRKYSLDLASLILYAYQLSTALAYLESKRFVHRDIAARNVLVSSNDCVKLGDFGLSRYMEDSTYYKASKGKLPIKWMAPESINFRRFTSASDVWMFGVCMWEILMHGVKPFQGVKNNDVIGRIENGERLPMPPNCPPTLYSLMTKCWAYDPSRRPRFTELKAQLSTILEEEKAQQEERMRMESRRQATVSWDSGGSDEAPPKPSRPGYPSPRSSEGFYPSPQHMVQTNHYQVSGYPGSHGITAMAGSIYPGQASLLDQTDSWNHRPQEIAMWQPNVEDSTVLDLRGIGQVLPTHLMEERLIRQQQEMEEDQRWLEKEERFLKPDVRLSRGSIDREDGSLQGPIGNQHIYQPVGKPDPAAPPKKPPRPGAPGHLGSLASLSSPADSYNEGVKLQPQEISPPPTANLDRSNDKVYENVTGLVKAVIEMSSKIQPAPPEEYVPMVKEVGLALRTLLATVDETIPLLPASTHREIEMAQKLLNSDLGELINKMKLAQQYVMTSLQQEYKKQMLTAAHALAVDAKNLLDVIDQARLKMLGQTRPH
row,Structure (SMILES),IC50
1,CS(=O)(=O)N1Cc2cccc(-c3ccc4cnc(Nc5ccc(C6CCN(CC(N)=O)CC6)cc5)nn34)c2C1,0.205 µM
2,NC(=O)CN1CCC(c2ccc(Nc3ncc4ccc(-c5ncccn5)n4n3)cc2)CC1,> 10 µM
3,COc1cc(Nc2ncc3ccc(-c4ccccc4)n3n2)cc(OC)c1OC,0.017 µM
4,COc1cc(C2CCN(CC(N)=O)CC2)ccc1Nc1ncc2ccc(-c3ccccc3OC)n2n1,0.021 µM
5,Cc1cc(-c2ccccc2N(C)S(C)(=O)=O)n2nc(Nc3ccc(C4CCN(CC(N)=O)CC4)cc3)ncc12,0.011 µM
6,CN(C)Cc1ccc(-c2ccc3cnc(Nc4ccc(C5CCN(CC(N)=O)CC5)cc4)nn23)cc1,> 1 µM
7,CC(C)(C)NS(=O)(=O)c1cccc(-c2ccc3cnc(Nc4ccc(C5CCN(CC(N)=O)CC5)cc4)nn23)c1,0.0057 µM
8,CS(=O)(=O)c1cccc(-c2ccc3cnc(Nc4ccc(C5CCN(CC(N)=O)CC5)cc4)nn23)c1,0.025 µM
9,NC(=O)CN1CCC(c2ccc(Nc3ncc4ccc(-c5cccc6c5OC(F)(F)O6)n4n3)cc2)CC1,0.122 µM
10,CS(=O)(=O)c1ccc(-c2ccc3cnc(Nc4ccc(C5CCN(CC(N)=O)CC5)cc4)nn23)cc1,0.114 µM
11,NC(=O)CN1CCC(c2ccc(Nc3ncc4ccc(-c5cccc(CO)c5)n4n3)cc2)CC1,0.033 µM

# Molecular target: T2, Focal adhesion kinase 1
# Assay: Inhibition of FAK in human 293GT cells after 1 hr by luminescence-based spectrophotometry
# Type: cell-based
row,Structure (SMILES),IC50
1,Cc1cc(-c2ccccc2N(C)S(C)(=O)=O)n2nc(Nc3ccc(C4CCN(CC(N)=O)CC4)cc3)ncc12,1.23 µM
2,CC(C)(C)NS(=O)(=O)c1cccc(-c2ccc3cnc(Nc4ccc(C5CCN(CC(N)=O)CC5)cc4)nn23)c1,1.34 µM
3,CS(=O)(=O)c1cccc(-c2ccc3cnc(Nc4ccc(C5CCN(CC(N)=O)CC5)cc4)nn23)c1,1.01 µM
4,CS(=O)(=O)c1ccc(-c2ccc3cnc(Nc4ccc(C5CCN(CC(N)=O)CC5)cc4)nn23)cc1,> 10 µM
5,NC(=O)CN1CCC(c2ccc(Nc3ncc4ccc(-c5cccc(CO)c5)n4n3)cc2)CC1,1.39 µM

# Molecular target: T1, Tyrosine-protein kinase JAK2
# Assay: Inhibition of human recombinant JAK2 expressed in baculovirus expression system after 20 mins by time resolved fluorescence assay
row,Structure (SMILES),IC50
1,NC(=O)CN1CCC(c2ccc(Nc3ncc4ccc(-c5ncccn5)n4n3)cc2)CC1,0.085 µM
2,COc1cc(Nc2ncc3ccc(-c4ccccc4)n3n2)cc(OC)c1OC,0.0002 µM
3,COc1cc(C2CCN(CC(N)=O)CC2)ccc1Nc1ncc2ccc(-c3ccccc3OC)n2n1,0.25 µM
4,CN(C)Cc1ccc(-c2ccc3cnc(Nc4ccc(C5CCN(CC(N)=O)CC5)cc4)nn23)cc1,2.9 µM
5,CC(C)(C)NS(=O)(=O)c1cccc(-c2ccc3cnc(Nc4ccc(C5CCN(CC(N)=O)CC5)cc4)nn23)c1,0.00064 µM
6,CS(=O)(=O)c1cccc(-c2ccc3cnc(Nc4ccc(C5CCN(CC(N)=O)CC5)cc4)nn23)c1,0.00052 µM
7,NC(=O)CN1CCC(c2ccc(Nc3ncc4ccc(-c5cccc6c5OC(F)(F)O6)n4n3)cc2)CC1,0.013 µM
8,CS(=O)(=O)c1ccc(-c2ccc3cnc(Nc4ccc(C5CCN(CC(N)=O)CC5)cc4)nn23)cc1,0.00022 µM
9,NC(=O)CN1CCC(c2ccc(Nc3ncc4ccc(-c5cccc(CO)c5)n4n3)cc2)CC1,0.00027 µM
